Experiments:
Ephrin type-B receptor 4 = molecular target: T1, Ephrin type-B receptor 4 (Homo sapiens, UniProt P54760)
T1 sequence (P54760 whole entry): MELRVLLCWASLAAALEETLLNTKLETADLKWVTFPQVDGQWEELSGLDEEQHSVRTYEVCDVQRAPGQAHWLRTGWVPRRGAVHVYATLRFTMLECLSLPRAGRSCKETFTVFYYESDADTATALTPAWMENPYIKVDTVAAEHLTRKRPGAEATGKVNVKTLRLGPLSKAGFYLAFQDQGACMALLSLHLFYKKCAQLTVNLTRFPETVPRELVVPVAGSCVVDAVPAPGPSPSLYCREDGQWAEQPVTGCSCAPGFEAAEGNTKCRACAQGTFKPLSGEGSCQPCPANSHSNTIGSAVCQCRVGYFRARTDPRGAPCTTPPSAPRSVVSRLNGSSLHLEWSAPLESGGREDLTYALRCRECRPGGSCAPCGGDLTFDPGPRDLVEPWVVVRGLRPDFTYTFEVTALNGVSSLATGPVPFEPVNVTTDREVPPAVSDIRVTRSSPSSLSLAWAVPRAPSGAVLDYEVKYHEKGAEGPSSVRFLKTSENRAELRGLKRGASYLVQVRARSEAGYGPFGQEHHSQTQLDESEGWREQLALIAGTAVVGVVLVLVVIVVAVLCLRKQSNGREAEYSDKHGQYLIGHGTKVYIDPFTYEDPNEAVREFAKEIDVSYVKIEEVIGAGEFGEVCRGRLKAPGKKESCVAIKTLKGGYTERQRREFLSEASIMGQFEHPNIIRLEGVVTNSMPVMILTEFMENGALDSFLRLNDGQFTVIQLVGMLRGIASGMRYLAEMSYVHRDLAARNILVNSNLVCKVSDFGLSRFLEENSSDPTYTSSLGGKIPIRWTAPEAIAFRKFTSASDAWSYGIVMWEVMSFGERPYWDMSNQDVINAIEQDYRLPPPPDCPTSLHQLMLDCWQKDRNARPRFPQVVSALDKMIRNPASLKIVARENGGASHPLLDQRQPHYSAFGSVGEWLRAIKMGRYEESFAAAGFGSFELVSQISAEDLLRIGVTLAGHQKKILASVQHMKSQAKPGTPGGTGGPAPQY

[1] = molecular target: Tyrosine-protein kinase BTK (Homo sapiens, UniProt Q06187)
Sequence of Tyrosine-protein kinase BTK (Q06187 whole entry): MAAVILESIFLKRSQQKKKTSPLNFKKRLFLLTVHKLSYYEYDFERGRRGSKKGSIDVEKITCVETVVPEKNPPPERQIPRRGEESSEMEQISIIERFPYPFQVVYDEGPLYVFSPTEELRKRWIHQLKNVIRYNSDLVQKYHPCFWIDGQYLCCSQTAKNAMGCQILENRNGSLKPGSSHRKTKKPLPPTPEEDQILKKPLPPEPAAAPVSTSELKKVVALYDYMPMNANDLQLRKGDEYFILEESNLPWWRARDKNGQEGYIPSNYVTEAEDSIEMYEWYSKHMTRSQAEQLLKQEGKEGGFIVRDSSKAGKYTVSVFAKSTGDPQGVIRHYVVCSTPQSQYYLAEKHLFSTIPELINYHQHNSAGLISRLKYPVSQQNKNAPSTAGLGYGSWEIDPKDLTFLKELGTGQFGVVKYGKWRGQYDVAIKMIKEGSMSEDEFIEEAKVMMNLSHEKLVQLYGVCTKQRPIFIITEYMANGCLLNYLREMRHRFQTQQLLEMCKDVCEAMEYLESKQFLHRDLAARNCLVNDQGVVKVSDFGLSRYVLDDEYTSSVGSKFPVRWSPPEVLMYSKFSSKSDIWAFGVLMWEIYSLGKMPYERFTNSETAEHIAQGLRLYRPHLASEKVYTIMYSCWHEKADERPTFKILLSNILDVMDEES

[2] = molecular target: T2, Serine/threonine-protein kinase 36 (Homo sapiens, UniProt Q9NRP7)
T2 sequence (Q9NRP7 whole entry): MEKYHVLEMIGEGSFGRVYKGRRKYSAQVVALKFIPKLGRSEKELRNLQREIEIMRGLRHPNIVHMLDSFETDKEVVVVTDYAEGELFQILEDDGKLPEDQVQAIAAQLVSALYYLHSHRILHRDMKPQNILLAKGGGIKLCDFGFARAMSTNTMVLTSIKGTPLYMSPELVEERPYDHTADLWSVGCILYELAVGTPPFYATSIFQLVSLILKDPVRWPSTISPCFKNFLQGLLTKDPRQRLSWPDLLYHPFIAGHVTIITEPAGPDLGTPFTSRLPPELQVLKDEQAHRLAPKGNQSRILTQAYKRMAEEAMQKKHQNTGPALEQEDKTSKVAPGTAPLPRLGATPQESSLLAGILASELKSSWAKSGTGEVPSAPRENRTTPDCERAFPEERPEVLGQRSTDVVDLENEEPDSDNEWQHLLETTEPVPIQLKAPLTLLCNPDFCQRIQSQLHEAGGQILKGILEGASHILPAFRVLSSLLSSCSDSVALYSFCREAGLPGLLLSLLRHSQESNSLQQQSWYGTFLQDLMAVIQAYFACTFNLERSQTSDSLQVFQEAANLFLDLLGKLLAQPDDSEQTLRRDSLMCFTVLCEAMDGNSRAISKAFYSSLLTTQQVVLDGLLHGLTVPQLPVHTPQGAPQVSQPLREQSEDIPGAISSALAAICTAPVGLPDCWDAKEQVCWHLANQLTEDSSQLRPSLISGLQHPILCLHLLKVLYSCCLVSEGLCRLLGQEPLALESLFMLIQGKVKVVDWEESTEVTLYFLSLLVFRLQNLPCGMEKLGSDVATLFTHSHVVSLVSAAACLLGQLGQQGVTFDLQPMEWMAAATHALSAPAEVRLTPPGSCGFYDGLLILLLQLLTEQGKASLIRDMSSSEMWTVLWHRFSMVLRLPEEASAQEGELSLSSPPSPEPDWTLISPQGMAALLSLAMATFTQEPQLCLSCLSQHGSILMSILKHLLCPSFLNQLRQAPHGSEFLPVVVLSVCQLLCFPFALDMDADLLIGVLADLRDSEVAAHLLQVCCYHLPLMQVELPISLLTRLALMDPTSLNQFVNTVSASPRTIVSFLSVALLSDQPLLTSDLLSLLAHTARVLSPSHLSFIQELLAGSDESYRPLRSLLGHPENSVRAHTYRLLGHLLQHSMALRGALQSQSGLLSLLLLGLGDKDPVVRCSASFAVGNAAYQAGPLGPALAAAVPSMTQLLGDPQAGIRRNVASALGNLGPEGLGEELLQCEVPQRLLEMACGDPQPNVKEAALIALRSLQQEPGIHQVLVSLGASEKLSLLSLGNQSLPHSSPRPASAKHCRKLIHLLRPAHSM

Ephrin type-A receptor 4 = Ephrin type-A receptor 4 (Homo sapiens, UniProt P54764)
Sequence of Ephrin type-A receptor 4 (P54764 whole entry, the tested form may be a part): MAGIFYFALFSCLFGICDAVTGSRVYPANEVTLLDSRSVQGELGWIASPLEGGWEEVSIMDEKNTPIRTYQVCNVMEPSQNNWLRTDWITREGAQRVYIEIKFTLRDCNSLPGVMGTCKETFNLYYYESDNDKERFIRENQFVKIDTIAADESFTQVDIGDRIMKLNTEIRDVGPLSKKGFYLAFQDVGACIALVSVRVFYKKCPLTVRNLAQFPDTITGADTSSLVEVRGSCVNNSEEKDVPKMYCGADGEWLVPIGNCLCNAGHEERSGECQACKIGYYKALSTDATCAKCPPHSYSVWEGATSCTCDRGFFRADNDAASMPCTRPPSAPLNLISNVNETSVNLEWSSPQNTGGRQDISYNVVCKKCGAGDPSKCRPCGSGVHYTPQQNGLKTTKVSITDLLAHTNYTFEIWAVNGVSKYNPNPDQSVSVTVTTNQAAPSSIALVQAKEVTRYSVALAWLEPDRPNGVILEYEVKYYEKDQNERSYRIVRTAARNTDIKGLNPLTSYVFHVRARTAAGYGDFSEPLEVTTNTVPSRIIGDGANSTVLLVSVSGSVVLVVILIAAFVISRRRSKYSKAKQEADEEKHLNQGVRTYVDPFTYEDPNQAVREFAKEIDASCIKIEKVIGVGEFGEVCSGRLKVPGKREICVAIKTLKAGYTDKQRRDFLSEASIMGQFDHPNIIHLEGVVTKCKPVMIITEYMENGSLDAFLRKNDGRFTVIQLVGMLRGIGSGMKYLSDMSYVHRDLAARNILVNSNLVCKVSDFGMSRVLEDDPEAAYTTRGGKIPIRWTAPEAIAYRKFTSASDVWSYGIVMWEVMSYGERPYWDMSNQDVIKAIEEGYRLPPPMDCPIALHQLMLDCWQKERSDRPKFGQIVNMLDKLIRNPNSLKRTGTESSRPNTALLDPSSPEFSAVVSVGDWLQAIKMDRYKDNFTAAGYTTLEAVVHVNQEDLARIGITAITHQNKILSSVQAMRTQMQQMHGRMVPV

LIM domain kinase 1 = LIM domain kinase 1 (Homo sapiens, UniProt P53667)
Sequence of LIM domain kinase 1 (P53667 whole entry, the tested form may be a part): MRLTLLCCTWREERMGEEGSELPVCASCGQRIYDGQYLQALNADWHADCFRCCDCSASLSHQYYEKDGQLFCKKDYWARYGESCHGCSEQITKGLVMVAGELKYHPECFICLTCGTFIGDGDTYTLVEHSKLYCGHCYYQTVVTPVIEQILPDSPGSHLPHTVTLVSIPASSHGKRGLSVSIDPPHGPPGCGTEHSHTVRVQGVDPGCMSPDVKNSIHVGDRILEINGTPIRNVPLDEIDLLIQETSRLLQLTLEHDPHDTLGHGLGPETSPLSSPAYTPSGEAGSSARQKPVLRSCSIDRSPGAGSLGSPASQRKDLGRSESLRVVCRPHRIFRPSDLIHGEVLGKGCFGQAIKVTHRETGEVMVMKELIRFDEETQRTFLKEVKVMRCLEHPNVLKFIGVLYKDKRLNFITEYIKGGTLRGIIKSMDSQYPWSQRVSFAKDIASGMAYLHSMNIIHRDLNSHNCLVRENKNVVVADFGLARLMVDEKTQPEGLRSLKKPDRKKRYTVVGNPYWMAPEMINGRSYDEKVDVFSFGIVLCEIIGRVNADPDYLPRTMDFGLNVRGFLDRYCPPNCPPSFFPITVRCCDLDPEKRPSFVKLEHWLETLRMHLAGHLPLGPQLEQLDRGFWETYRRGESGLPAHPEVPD

[3] = molecular target: Protein kinase C alpha type (Homo sapiens, UniProt P17252)
[4] = molecular target: 5'-AMP-activated protein kinase catalytic subunit alpha-1 (Homo sapiens, UniProt Q13131)
Sequence of 5'-AMP-activated protein kinase catalytic subunit alpha-1 (Q13131 whole entry): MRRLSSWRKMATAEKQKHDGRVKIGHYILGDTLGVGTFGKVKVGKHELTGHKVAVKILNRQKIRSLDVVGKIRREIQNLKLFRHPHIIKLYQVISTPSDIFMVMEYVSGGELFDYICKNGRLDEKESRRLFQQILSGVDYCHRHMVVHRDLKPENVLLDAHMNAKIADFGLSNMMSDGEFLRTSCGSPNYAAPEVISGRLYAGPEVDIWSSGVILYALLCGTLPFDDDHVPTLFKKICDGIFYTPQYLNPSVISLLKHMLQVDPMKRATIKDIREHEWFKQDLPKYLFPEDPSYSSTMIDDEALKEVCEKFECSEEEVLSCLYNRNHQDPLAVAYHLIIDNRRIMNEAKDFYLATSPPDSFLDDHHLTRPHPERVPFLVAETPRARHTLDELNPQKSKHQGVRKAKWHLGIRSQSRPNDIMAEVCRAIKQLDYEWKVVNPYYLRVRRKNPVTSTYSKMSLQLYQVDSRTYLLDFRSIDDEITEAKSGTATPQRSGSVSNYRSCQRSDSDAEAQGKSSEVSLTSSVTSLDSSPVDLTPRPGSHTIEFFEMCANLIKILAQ

[5] = molecular target: Calcium/calmodulin-dependent protein kinase type II subunit beta (Homo sapiens, UniProt Q13554)
Sequence of Calcium/calmodulin-dependent protein kinase type II subunit beta (Q13554 whole entry, canonical isoform): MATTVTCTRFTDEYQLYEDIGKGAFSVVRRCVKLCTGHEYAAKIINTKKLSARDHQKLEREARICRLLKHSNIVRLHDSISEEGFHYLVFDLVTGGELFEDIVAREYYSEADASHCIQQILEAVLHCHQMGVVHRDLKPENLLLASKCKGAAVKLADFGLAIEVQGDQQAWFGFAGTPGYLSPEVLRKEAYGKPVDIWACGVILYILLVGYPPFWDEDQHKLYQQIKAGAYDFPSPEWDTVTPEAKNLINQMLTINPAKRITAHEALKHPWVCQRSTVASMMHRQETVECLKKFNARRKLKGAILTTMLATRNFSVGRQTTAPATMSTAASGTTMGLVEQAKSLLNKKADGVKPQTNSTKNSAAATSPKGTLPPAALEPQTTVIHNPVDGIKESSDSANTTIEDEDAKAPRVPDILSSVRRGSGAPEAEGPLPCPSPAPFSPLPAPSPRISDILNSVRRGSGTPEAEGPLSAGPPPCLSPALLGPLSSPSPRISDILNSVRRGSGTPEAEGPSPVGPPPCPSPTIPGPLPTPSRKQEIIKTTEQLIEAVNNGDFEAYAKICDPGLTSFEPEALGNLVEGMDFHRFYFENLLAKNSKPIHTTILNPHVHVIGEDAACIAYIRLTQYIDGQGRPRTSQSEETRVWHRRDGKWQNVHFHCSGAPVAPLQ

[6] = molecular target: Casein kinase I isoform gamma-1 (Homo sapiens, UniProt Q9HCP0)
Sequence of Casein kinase I isoform gamma-1 (Q9HCP0 whole entry, canonical isoform): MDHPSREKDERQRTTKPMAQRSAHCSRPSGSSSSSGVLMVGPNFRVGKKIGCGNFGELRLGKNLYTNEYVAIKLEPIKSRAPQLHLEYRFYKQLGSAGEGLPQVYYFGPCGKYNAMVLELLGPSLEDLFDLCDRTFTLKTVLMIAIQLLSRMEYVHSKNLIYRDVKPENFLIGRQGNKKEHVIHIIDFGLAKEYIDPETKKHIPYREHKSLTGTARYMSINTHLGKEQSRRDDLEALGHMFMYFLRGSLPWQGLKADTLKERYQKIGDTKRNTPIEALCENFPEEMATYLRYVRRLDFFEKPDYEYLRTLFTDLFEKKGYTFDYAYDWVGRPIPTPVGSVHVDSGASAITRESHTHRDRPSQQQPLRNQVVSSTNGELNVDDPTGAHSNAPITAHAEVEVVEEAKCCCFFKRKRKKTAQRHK

[7] = molecular target: Death-associated protein kinase 3 (Homo sapiens, UniProt O43293)
[8] = molecular target: AP2-associated protein kinase 1 (Homo sapiens, UniProt Q2M2I8)
Sequence of AP2-associated protein kinase 1 (Q2M2I8 whole entry): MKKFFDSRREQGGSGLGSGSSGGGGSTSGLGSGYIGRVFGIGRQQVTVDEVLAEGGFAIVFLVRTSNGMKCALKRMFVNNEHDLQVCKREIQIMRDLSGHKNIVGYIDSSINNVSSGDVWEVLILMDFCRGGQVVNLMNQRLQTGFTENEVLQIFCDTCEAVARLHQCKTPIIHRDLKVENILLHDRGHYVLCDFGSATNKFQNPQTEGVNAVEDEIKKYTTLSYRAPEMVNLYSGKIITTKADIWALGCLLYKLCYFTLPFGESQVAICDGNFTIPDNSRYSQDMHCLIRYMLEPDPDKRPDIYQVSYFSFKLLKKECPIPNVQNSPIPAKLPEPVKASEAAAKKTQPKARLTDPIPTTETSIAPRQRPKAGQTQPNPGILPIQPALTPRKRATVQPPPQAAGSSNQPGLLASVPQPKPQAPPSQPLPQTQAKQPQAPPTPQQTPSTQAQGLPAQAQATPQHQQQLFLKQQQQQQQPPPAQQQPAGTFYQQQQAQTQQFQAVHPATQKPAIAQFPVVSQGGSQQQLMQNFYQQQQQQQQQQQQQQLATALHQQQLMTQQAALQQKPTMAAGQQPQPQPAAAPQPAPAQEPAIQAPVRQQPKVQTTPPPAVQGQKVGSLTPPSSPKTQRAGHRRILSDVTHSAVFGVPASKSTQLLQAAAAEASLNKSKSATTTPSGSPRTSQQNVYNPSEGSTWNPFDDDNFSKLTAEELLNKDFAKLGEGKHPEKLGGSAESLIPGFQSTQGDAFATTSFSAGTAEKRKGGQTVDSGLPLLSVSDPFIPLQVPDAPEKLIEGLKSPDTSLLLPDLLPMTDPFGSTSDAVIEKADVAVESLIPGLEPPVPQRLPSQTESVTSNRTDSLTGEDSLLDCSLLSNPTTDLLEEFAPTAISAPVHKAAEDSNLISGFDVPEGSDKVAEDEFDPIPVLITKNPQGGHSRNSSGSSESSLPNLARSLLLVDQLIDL

Measured: Kd

C#Cc1cccc(Nc2ncnc3cc(OCCOC)c(OCCOC)cc23)c1 [ERLOTINIB]
not listed: [8]
Not Active: all other assays above

Cc1ccc(NC(=O)c2ccc(CN3CCN(C)CC3)cc2)cc1Nc1nccc(-c2cccnc2)n1 [IMATINIB]
Not Active: all assays above

O=c1ncn2nc(Sc3ccc(F)cc3F)ccc2c1-c1c(Cl)cccc1Cl [NEFLAMAPIMOD]
not listed: Ephrin type-B receptor 4 | Ephrin type-A receptor 4
Not Active: all other assays above

CCOc1cc2ncc(C#N)c(Nc3ccc(F)c(Cl)c3)c2cc1NC(=O)/C=C/CN(C)C [PELITINIB]
Not Active: Ephrin type-A receptor 4 | LIM domain kinase 1 | [3] | [4] | [5] | [6]

Oc1ccc(-c2nc(-c3ccc(F)cc3)c(-c3ccncc3)[nH]2)cc1 [SB-202190]
not listed: [2]
Not Active: all other assays above

C[S+]([O-])c1ccc(-c2nc(-c3ccc(F)cc3)c(-c3ccncc3)[nH]2)cc1 (centres undefined) [SB-203580]
not listed: [2]
Not Active: all other assays above

CC[C@H](CO)Nc1nc(NCc2ccccc2)c2ncn(C(C)C)c2n1 [SELICICLIB]
not listed: [6]
Not Active: all other assays above

Oc1c2ccccc2c2c3c(cccc13)N=N2 [SP-600125]
not listed: [5] | [6] | [7] | [8]
Not Active: all other assays above

COc1cc2c(N3CCN(C(=O)Nc4ccc(OC(C)C)cc4)CC3)ncnc2cc1OCCCN1CCCCC1 [TANDUTINIB]
Not Active: all assays above
